Assay results: patent EP1192860B1, “UVA-tracer containing disinfectant and method of determining the degree of dilution of disinfectants using UVA-tracers” (Air Liquide Santé (International), priority 2000, dated 2002)
Entries after “also recorded” stand apart in the source; their conditions may differ.

What was measured:
Type in all cases: physicochemical
[1] = Solubility of selected UV-A-tracers in selected concentrates; conditions: for Solubilities of selected UV-A-tracers in concentrates and optically visible changes compared with the original concentrate: 0.2 g UV-A-tracer in 100 g concentrate, stirred 3 hours; for Solubility in the concentrates: all five concentrates (preparations 1 to 5)
Source text: Solubilities of selected UV-A-tracers in concentrates containing various active ingredient combinations (preparations 1 to 5) and optically visible changes compared with the original concentrate, "+" UV-A-tracer soluble in 100 g of preparation to at least 0.2 g, "y" the originally colourless concentrate turns yellowish as a result of the incorporation of the UV-A-tracer.

[2] = Absorption spectrophotometric stability investigations of the incorporated UV-A-tracers
Method: The long-term stability of combinations of concentrate and UV-A-tracers in the dark and under the effect of light was investigated by reference to UV spectra. The combinations below were used (Table 7): Table 7
Following storage at room temperature for 4, 8 or 12 weeks in the dark or in daylight, 1% strength dilutions of each of the preparations in water were prepared.

[3] = Stability investigations of UV-A-tracer-containing concentrates (optically visible changes on storage); conditions: clear glass bottles, room temperature, window-sill vs dark, 3 months
Source text: Since the UV-A-tracers are to be used for determining the active ingredient concentrations of disinfectant solutions, the UV-A-tracer-containing concentrates must be sufficiently stable throughout the entire storage life of the commercially available disinfectant concentrates (approximately 3 years). In order to investigate the stability of the UV-A-tracers, preparations 1 to 5 to which UV-A-tracers have been added were stored in clear glass bottles at room temperature firstly on a window-sill and secondly as a reference in the dark. Over a period of 3 months, the optically visible changes of the UV-A-tracer-containing preparations stored under varying conditions were observed and, at regular time intervals, 1% dilutions of these UV-A-tracer-containing preparations in water were investigated spectroscopically.

[4] = Prep.4 (Combinations of aldehydes)
[5] = Prep.5 (Quat + phenoxypropanols)
[6] = amine-containing preparations (1 and 2)

| SMILES | Solubilities of selected UV-A-tracers in concentrates and optically visible changes compared with the original concentrate ([1]; Prep.1 (Quat + alkylamine)) | Solubilities of selected UV-A-tracers in concentrates and optically visible changes compared with the original concentrate ([1]; Prep.2 (Quat + GuAc)) | Solubilities of selected UV-A-tracers in concentrates and optically visible changes compared with the original concentrate ([1]; Prep.3 (Quat + org. acid)) | Solubilities of selected UV-A-tracers in concentrates and optically visible changes compared with the original concentrate [1, 4] | Solubilities of selected UV-A-tracers in concentrates and optically visible changes compared with the original concentrate [1, 5] | Solubility in the concentrates [1] | Colour change on incorporation of the UV-A-tracer [1, 6] | Decomposition of the UV-A-tracer ([2]; preparations 3, 4 and 5, storage in the dark and in daylight) | Changes within the observation period ([3]; in Preparation 3) | Colour change on incorporation of the UV-A-tracer ([1]; all preparations) | Divergence of the absorptions between sample stored in the dark and sample exposed to daylight ([2]; in preparation 5, after 12 weeks, 1% strength dilutions in water) | Odour of the sample ([2]; in preparation 5, exposed to daylight, after 12 weeks) | Changes of the sample ([2]; in preparation 5, stored in the dark) | Changes within the observation period ([3]; in Preparation 1) | Changes within the observation period ([3]; in Preparation 2) | Changes within the observation period ([3]; in Preparation 4) | Changes within the observation period ([3]; in Preparation 5) |
| --- | --- | --- | --- | --- | --- | --- | --- | --- | --- | --- | --- | --- | --- | --- | --- | --- | --- |
| COc1ccc(C(=O)c2ccccc2)c(O)c1 [Benzophenone-3, 2-Hydroxy-4-methoxybenzophenone] | +y | +y | + (UV-A-tracer soluble in 100 g of preparation to at least 0.2 g) | + (UV-A-tracer soluble in 100 g of preparation to at least 0.2 g) | + (UV-A-tracer soluble in 100 g of preparation to at least 0.2 g) | dissolves without problems | intensive yellow coloration | In none of the three disinfectants was decomposition of benzophenone-3 observed | does not display changes of any kind and none | – | – | – | – | – | – | – | – |
| COc1cc(O)c(C(=O)c2ccccc2)cc1S(=O)(=O)O [Benzophenone-4, 2-Hydroxy-4-methoxybenzophenone-5-sulphonic acid] | +y | +y | + (UV-A-tracer soluble in 100 g of preparation to at least 0.2 g) | + (UV-A-tracer soluble in 100 g of preparation to at least 0.2 g) | + (UV-A-tracer soluble in 100 g of preparation to at least 0.2 g) | – | intensive yellow coloration | – | – | – | – | – | – | – | – | – | – |
| COc1ccc(C(=O)c2ccc(OC)cc2O)c(O)c1 [Benzophenone-6, 2,2'-Dihydroxy-4,4'-dimethoxybenzophenone] | +y | +y | +y | + (UV-A-tracer soluble in 100 g of preparation to at least 0.2 g) | + (UV-A-tracer soluble in 100 g of preparation to at least 0.2 g) | – | intensive yellow coloration | – | – | – | – | – | – | – | – | – | – |
| COc1cc(O)c(C(=O)c2cc(S(=O)(=O)[O-])c(OC)cc2O)cc1S(=O)(=O)[O-].[Na+].[Na+] [Benzophenone-9, 2,2'-dihydroxy-4,4'-dimethoxybenzophenone-5,5'-disodium sulphonate] | +y | +y | +y | + (UV-A-tracer soluble in 100 g of preparation to at least 0.2 g) | + (UV-A-tracer soluble in 100 g of preparation to at least 0.2 g) | – | intensive yellow coloration | – | – | – | – | – | – | – | – | – | – |
| CC1CCC(C(C)C)C(OC(=O)c2ccccc2N)C1 (stereo not drawn) [Menthyl anthranilate, Menthyl o-aminobenzoate] | + (UV-A-tracer soluble in 100 g of preparation to at least 0.2 g) | + (UV-A-tracer soluble in 100 g of preparation to at least 0.2 g) | + (UV-A-tracer soluble in 100 g of preparation to at least 0.2 g) | + (UV-A-tracer soluble in 100 g of preparation to at least 0.2 g) | + (UV-A-tracer soluble in 100 g of preparation to at least 0.2 g) | dissolves in all preparations | – | – | intensive yellow coloration | without visible colour changes | significant divergence | intensive unpleasant odour | does not display any perceptible changes | slight yellowish tinge; also recorded: slight yellow coloration | slight yellowish tinge; also recorded: slight yellow coloration | pale yellow-green colour | from green to yellow |
